One test addresses T1, hKiSS1R (Homo sapiens, UniProt Q969F8).
T1 construct: expressed in transfected cells; host or cells: HEK293A
The test is described as follows: intracellular Ca2+ mobilization assay (Fluo4 NW) in KiSS1R-transfected HEK293A cells. It counts as cell-based. The conditions noted are these: for EC50: SEM. From the text: Figure 1 Chemical structures and half maximal effective concentration (mean ± SEM, N = 3) of kisspeptin 10 and analogs C2–C7 as measured in a calcium mobilization assay in KiSS1R-transfected HEK293 cell line. Ac: acetyl; Palm-γ-Glu: N-palmitoylated-γ-glutamate, Tz: Triazole; Me: Methyl. TEXT PRINTED IN THE PICTURE: Kp10 1: EC50 (nM): 2.6 ± 2.2 | 2: EC50 (nM): 0.07 ± 0.06 | 3: EC50 (nM): 1.6 ± 0.2 | 4: EC50 (nM): 216 ± 110 | 5: EC50 (nM): 0.22 ± 0.33 | 6: EC50 (nM): 0.33 ± 0.24 | 7: EC50 (nM): 0.04 ± 0.02
Receptor activation was monitored using Fluo4 NW Ca^2+ assay kit in HEK293A cells transfected with the hKiSS1R as previously described[11] (kind gift of professor N. de Roux, INSERM U690, Hôpital Robert Debré, Paris, France). Considering the type of analysis performed, assessment of second messenger activation of a heterologous expressed receptor, the use of potentially misidentified cells has no impact on the result. Basal fluorescence was measured with a plate reader (PolarStar Optima, BMG Labtech). Immediately after the basal reading, the test compound was added at different concentrations and the intracellular Ca^2+ dynamic monitored. To generate concentration activity curves, the mean basal value was subtracted from the value obtained after stimulation. The area under the curve (AUC) was calculated and plotted against concentrations. Concentration activity data points were fitted to sigmoidal curves generated by GraphPad Prism 5 and EC50 automatically calculated.

Test [1] has as its system ewes. The experiment in a line: LH plasma concentration in ewes during artificial luteal phase (under flugestone acetate), intramuscular injection. The format is in vivo, ewe (Ile de France). The conditions noted are these: 15 nmol/ewe im, breeding season, ewes under FA treatment, N = 6. On the procedure:
(§1) To induce an artificial luteal phase intact cyclic (October–December) or anestrus acyclic (March–June) ewes were implanted with vaginal sponge containing FA (Chronogest, Intervet), a progesterone analog, for 14 days. To compare the activity of Kp, C3, C5 and C6 injection of test drug was performed during the treatment with FA. For the experiments of synchronization and induction of ovulation 24 hours before drug injection the vaginal sponge was removed and the same day a catheter (ID 1.0, L 52 mm, Intraflon 2, Vygon, France) was inserted in the jugular vein. On the day of experiment the test compound was injected intramuscularly and blood samples (2 mL) were taken at various time intervals post-injection: every10 minutes for the first hour, every 20 minutes from 2 to 6 hours, every 60 minutes from 6 to 10 hours and every 120 minutes from 10 hours to the end of the experiment). Data are expressed as means ± SEM (N = 6–12 per group, for details on group size see figure legends).
Plasma LH concentrations in ewe were measured using previously described radioimmunoassays. The assay standard was 1055-CY-LH (equivalent to 2.2 NIH-LH-S1). Intra-assay coefficient of variation averaged 9% and assay sensitivity was 0.2 ± 0.05 ng/mL. Plasma FSH levels were measured using the reagents supplied by Tucker Endocrine Research Institute (Atlanta, Georgia, USA). […]

The test system of test [2] is ewes. The test is described as follows: LH surge / ovulation induction in ewes injected 24 h after flugestone acetate withdrawal (LH, FSH, progesterone). The format is in vivo, ewe (Ile de France). As to conditions: 15 nmol/ewe im. On the procedure:
as §1
Plasma LH concentrations in ewe were measured using previously described radioimmunoassays. […] Plasma FSH levels were measured using the reagents supplied by Tucker Endocrine Research Institute (Atlanta, Georgia, USA). […]
Progesterone was measured by an ELISA assay on 96-well plate (Immuno Nunc Maxisorp C96) coated with goat anti-mouse IgG (Uptima UP462140, Interchim) overnight at 4 °C. […]

In another test the test system is KiSS1R KO mice. The test is described as follows: circulating LH concentration in KiSS1R KO mice. It counts as in vivo, mouse. Here is the method:
Adult male and female KiSS1R KO mice[41] were primed by 5 ip injections of 40 ng/100 μL GnRH at 30 minute intervals and an equivalent volume of saline was injected to wild type mice. This protocol allows the pituitary gland to become more responsive to GnRH in this mouse line as previously reported. Blood samples (4 μL) were collected from the tail tip as previously described, before the first, third and fifth injection, and 30, 105 and 125 minutes after the last injection. C6 was injected immediately after the last blood sampling (0.3 nmoles/200 μL, a dose established in a preliminary experiment) and blood samples taken 20, 40, 60, 90, 120, 180, 300 minutes following injection. After 300 minutes a further injection of GnRH (40 ng/100 μL) was performed in KiSS1R KO mice, and a final blood sample was taken 30 minutes later to confirm the functionality of the HPG axis. Whole blood samples were collected in 150 μL of 0.1 M PBS-0.05% Tween20, mixed and moved to dry ice at the end of each sampling round. Experiments were conducted during the first 8 hours of the light phase to avoid any endogenous LH surges associated with the preovulatory stage of the female reproductive cycle. Data are expressed as means ± SEM (N = 4–7 per group, for details on group size see figure legends).
A sandwich ELISA, adapted from Steyn et al.[42], was used to measure LH concentration in mice. Monoclonal bovine LHβ 518 B7 (1:1,000 dilution) was used as the capture antibody (obtained from Lillian Sibley at University of California Davis), and the standard was NIDDK mouse LH reference preparation from AF Parlow (AFP5306A mouse RIA kit). The assay sensitivity was 0.2 ng/mL and the mean intra-assay coefficient of variation averaged 11%.

The mark [3] stands for this setting: KiSS1R-transfected HEK293 cell line, Fluo4 NW, AUC fitted, mean ± SEM, N = 3, read-out: EC50, calcium mobilization.
The mark [4] stands for this setting: 40 ng GnRH 300 min after C6, sample 30 min later.
The mark [5] stands for this setting: 5 ip injections of 40 ng GnRH at 30 min intervals, 15 minutes post injection.

“Also recorded” adds a separate entry of the source. Like-named read-outs stand apart in the source and are kept apart here. Starred links: 1 amine or outer side, 2 acyl side, 3 side chain; linkers in the order of their positions; H or OH if unused. Non-standard residues stand in square brackets, D forms with d. Residues, ends and D or L forms follow the SMILES beside them. No end group written: not given here. *: point of attachment. Glyψ(1,4-Tz)Leu = CC(C)C[C@@H](C(=O)[*:2])n1cc(CN[*:1])nn1; γGlu = O=C(O)[C@H](CCC(=O)[*:2])N[*:1]; Arg(Me) = CNC(=N)NCCC[C@H](N)C(=O)O; Palmitoyl = CCCCCCCCCCCCCCCC(=O)* Where only a bound is given, the exact number is not on record here.

Results on 5 compounds are retold here after paper PMC4887910, “A synthetic kisspeptin analog that triggers ovulation and advances puberty” (Scientific Reports, 2016).

T1 sequence (Q969F8 whole entry): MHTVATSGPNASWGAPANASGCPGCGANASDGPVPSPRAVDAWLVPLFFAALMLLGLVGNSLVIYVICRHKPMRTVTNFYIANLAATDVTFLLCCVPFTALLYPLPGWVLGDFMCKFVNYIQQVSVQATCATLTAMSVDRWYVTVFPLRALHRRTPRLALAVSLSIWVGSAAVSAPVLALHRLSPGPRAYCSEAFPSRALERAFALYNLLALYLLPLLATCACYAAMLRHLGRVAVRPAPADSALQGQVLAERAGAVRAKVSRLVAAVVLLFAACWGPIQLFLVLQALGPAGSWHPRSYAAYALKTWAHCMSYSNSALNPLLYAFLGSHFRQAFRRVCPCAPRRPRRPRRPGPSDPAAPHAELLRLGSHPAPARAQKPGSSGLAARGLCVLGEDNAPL

`CCCCCCCCCCCCCCCC(=O)N[C@@H](CCC(=O)N[C@@H](Cc1ccc(O)cc1)C(=O)N[C@@H](CC(N)=O)C(=O)N[C@@H](Cc1c[nH]c2ccccc12)C(=O)N[C@@H](CC(N)=O)C(=O)N[C@@H](CO)C(=O)N[C@@H](Cc1ccccc1)C(=O)NCc1cn([C@@H](CC(C)C)C(=O)N[C@@H](CCCNC(=N)N)C(=O)N[C@@H](Cc2ccc(O)cc2)C(N)=O)nn1)C(=O)O` [C5] ({Palmitoyl-γGlu}-YNWNSF[Glyψ(1,4-Tz)Leu]RY-NH2): the 50% effective concentration (EC50) at hKiSS1R (setting [3]) turned out to be 0.22 ± 0.33 nM.

For `CCCCCCCCCCCCCCCC(=O)N[C@@H](CCC(=O)N[C@@H](Cc1ccc(O)cc1)C(=O)N[C@@H](CC(N)=O)C(=O)N[C@@H](Cc1c[nH]c2ccccc12)C(=O)N[C@@H](CC(N)=O)C(=O)N[C@@H](CO)C(=O)N[C@@H](Cc1ccccc1)C(=O)NCc1cn([C@@H](CC(C)C)C(=O)N[C@@H](CCCNC(=N)NC)C(=O)N[C@@H](Cc2ccc(O)cc2)C(N)=O)nn1)C(=O)O` [C6] ({Palmitoyl-γGlu}-YNWNSF[Glyψ(1,4-Tz)Leu][Arg(Me)]Y-NH2), the “enhancement in EC50 compared to C3” value at hKiSS1R (C6 versus first generation analog C3) is reported as ~ 5 fold. Moreover, the EC50 at hKiSS1R came to 0.33 ± 0.24 nM.

Regarding `CNC(=N)NCCC[C@H](NC(=O)[C@H](CC(C)C)n1cc(CNC(=O)[C@H](Cc2ccccc2)NC(=O)[C@H](CO)NC(=O)[C@H](CC(N)=O)NC(=O)[C@H](Cc2c[nH]c3ccccc23)NC(=O)[C@H](CC(N)=O)NC(=O)[C@H](Cc2ccc(O)cc2)NC(C)=O)nn1)C(=O)N[C@@H](Cc1ccc(O)cc1)C(N)=O` [C7] (Ac-YNWNSF[Glyψ(1,4-Tz)Leu][Arg(Me)]Y-NH2), the half-maximal effective concentration (EC50) at hKiSS1R (setting [3]) worked out at 0.04 ± 0.02 nM.

YNWNSFGLRY-NH2 [Kp10]: in the test with ewes [1], the “effect on LH plasma concentration” value is on record as “negligible effect; also recorded: no effect on LH basal level”. Moreover, the EC50 at hKiSS1R (setting [3]) worked out at 2.6 ± 2.2 nM. Moreover, the “effect on LH plasma concentration, non-breeding season” value in the test with ewes [2] (24 h after ending FA treatment, N = 6) is listed as “no increase”. Further, the progesterone level in the test on ewes [2] (non-breeding season, 1 ng mL^−1 threshold = ovulation hallmark) is < 1 ng/mL.

As to “gonadotropin releasing hormone (QHWSYGLRPG; ends and bridges not checked; UniProt P13562 22-31, looked up) [GnRH, hormone injected ip to prime KiSS1R KO mice and check pituitary function]”, in the test on KiSS1R KO mice (setting [4]), the “LH after further GnRH injection at end of experiment, KO females” value amounted to 4.8 ± 1.9 ng/mL and the “LH after further GnRH injection at end of experiment, KO males” value amounted to 3.2 ± 0.4 ng/mL. Also, in the test with KiSS1R KO mice (setting [5]), the “LH after GnRH priming, KO females” value stood at 2.3 ± 0.8 ng/mL and the “LH after GnRH priming, KO males” value amounted to 2.7 ± 0.6 ng/mL. Moreover, in the test with KiSS1R KO mice (KiSS1R KO mice, 15 minutes post injection), the “fold increase of circulating LH after GnRH priming” value was 3–6 fold.
